Test results as given in patent US8546390B2, “6-(pyrrolopyridinyl) pyrimidin-2-ylamine derivatives and the use thereof for the treatment of cancer and AIDS” (Merck Patent GmbH, priority 2008, dated 2013).

system: A2780 (ovary); test: Inhibition of the proliferation/vitality of tumour cells (Alamar Blue test); format: cell-based; conditions: Homo sapiens, 96 h, A2780 ovary cell line, 4 days cultivation with test substance
Description: In the present experiment description, the inhibition of tumour cell proliferation/tumour cell vitality by active ingredients is described. The cells are sown in a suitable cell density in microtitre plates (96-well format) and the test substances are added in the form of a concentration series. After four further days of cultivation in serum-containing medium, the tumour cell proliferation/tumour cell vitality can be determined by means of an Alamar Blue test system.
The cells are cultivated in medium. At intervals of several days, the cells are detached from the culture dishes with the aid of trypsin solution and sown in suitable dilution in fresh medium. The cells are cultivated at 37° Celsius and 10% CO2.
A defined number of cells (for example 2000 cells) per culture/well in a volume of 180 μl of culture medium are sown in microtitre plates (96 well cell-culture plates) using a multichannel pipette. The cells are subsequently cultivated in a CO2 incubator (37° C. and 10% CO2).
The test substances are dissolved, for example, in DMSO and subsequently employed in corresponding concentration (if desired in a dilution series) in the cell culture medium. The dilution steps can be adapted depending on the efficiency of the active ingredients and the desired spread of the concentrations. Cell culture medium is added to the test substances in corresponding concentrations. The addition of the test substances to the cells can take place on the same day as the sowing of the cells. To this end, in each case 20 μl of substance solution from the predilution plate are added to the cultures/wells. The cells are cultivated for a further 4 days at 37° Celsius and 10% CO2.
In each case, 20 μl of Alamar Blue reagent are added per well, and the microtitre plates are incubated, for example, for a further seven hours in a CO2 incubator (at 37° C. and 10% CO2). The plates are measured in a reader with a fluorescence filter at a wavelength of 540 nm. The plates can be shaken gently immediately before the measurement.
The absorbance value of the medium control (no cells and test substances used) is subtracted from all other absorbance values. The controls (cells without test substance) are set equal to 100 percent, and all other absorbance values are set in relation thereto (for example in % of control): Calculation:
IC50 values (50% inhibition) are determined with the aid of statistics programs, such as, for example, RS1.

| IC50 | Compound |
| --- | --- |
| 10 to 1000 nM | CCCCc1cc(-c2c[nH]c3ncccc23)nc(N)n1 [Compound A1, 4-butyl-6-(1H-pyrrolo[2,3-b]pyridin-3-yl)pyrimidin-2-ylamine] |
| 10 to 1000 nM | Nc1nc(-c2ccccc2)cc(-c2c[nH]c3ncccc23)n1 [Compound A2, 4-Phenyl-6-(1H-pyrrolo[2,3-b]pyridin-3-yl)pyrimidin-2-ylamine] |
| 10 to 1000 nM | CCCc1cc(-c2c[nH]c3ncccc23)nc(N)n1 [Compound A3, 4-Propyl-6-(1H-pyrrolo[2,3-b]pyridin-3-yl)pyrimidin-2-ylamine] |
| 10 to 1000 nM | CCc1cc(-c2c[nH]c3ncccc23)nc(N)n1 [Compound A5, 4-ethyl-6-(1H-pyrrolo[2,3-b]pyridin-3-yl)pyrimidin-2-ylamine] |
| 1000 to 10000 nM | CCCCCc1cc(-c2c[nH]c3ncccc23)nc(N)n1 [Compound A6, 4-Pentyl-6-(1H-pyrrolo[2,3-b]pyridin-3-yl)pyrimidin-2-ylamine] |
| 1000 to 10000 nM | CCCC1CCC(c2cc(-c3c[nH]c4ncccc34)nc(N)n2)CC1 (stereo not shown) [Compound A8] |

molecular target: T1, PDK1 (Homo sapiens, UniProt O15530); test: Test for the inhibition of PDK1 (flashplate, 33P-ATP); format: biochemical; conditions: not given
T1 construct: His6 (N)
T1 sequence (O15530 51-556): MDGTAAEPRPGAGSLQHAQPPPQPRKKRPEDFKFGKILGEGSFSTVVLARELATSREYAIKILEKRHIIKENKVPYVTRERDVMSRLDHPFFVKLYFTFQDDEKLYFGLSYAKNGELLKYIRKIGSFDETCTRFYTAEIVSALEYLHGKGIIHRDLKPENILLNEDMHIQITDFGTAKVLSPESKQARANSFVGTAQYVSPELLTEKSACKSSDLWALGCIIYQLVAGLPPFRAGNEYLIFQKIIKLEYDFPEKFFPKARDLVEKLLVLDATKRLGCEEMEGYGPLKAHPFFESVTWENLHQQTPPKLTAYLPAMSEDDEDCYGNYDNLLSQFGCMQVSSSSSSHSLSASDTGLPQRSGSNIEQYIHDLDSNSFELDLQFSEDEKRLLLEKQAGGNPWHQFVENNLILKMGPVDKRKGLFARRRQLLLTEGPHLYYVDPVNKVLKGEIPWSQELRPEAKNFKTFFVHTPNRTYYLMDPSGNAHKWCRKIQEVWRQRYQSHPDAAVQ
Description: NO.: 1, (400 Nm), 4 μm ATP (with 0.2 μCi of ^33P-ATP/well) and the test substance in 50 μl of conventional experimental solution per well are incubated at 30° C. for 60 min. The test substances are employed in corresponding concentrations (if desired in a dilution series). The control is carried out without test substance. The reaction is stopped using standard methods and washed. The activity of the kinase is measured via the incorporated radioactivity in top count. In order to determine the non-specific kinase reaction (blank value), the experimental batches are carried out in the presence of 100 nM staurosporin.
The radioactivity (decompositions per minute) of the blank value (no use of test substance in the presence of staurosporin) is subtracted from all other radioactivity values. The controls (kinase activity without test substance) are set equal to 100 percent and all other radioactivity values (after subtracting the blank value) are expressed set in relation thereto (for example in % of the control).

| IC50 | Compound |
| --- | --- |
| 10 to 1000 nM | CCc1cc(-c2c[nH]c3ncc(-c4cn[nH]c4)cc23)nc(N)n1 [Compound A60, 4-Ethyl-6-[5-(1H-pyrazol-4-yl)-1H-pyrrolo[2,3-b]pyridin-3-yl]pyrimidin-2-ylamine] |

same assay, conditions: His6-PDK1(Δ1-50) 3.4 nM; 30° C., 60 min; read-out: IC50 PDK1

| IC50 | Compound |
| --- | --- |
| 10 to 1000 nM | NCCCc1cc(-c2c[nH]c3ncccc23)nc(N)n1 [Compound A16, 4-(3-Aminopropyl)-6-(1H-pyrrolo[2,3-b]pyridin-3-yl)pyrimidin-2-ylamine] |
| 10 to 1000 nM | CCc1cc(-c2c[nH]c3ncc(Br)cc23)nc(N)n1 [Compound A32] |
| 10 to 1000 nM | NCCCc1cc(-c2c[nH]c3ncc(-c4ccco4)cc23)nc(N)n1 [Compound A43, 4-(3-Aminopropyl)-6-(5-furan-2-yl-1H-pyrrolo[2,3-b]pyridin-3-yl)pyrimidin-2-ylamine] |
| 10 to 1000 nM | CCc1cc(-c2c[nH]c3ncc(-c4cnn(C)c4)cc23)nc(N)n1 [Compound A45, 4-ethyl-6-[5-(1-methyl-1H-pyrazol-4-yl)-1H-pyrrolo[2,3-b]pyridin-3-yl]pyrimidin-2-ylamine] |
| 10 to 1000 nM | CCc1cc(-c2c[nH]c3ncc(-c4ccc(N)nc4)cc23)nc(N)n1 [Compound A48, 4-[5-(6-Aminopyridin-3-yl)-1H-pyrrolo-[2,3-b]pyridin-3-yl]-6-ethylpyrimidin-2-ylamine] |
| 10 to 1000 nM | CCc1cc(-c2c[nH]c3ncc(-c4ccco4)cc23)nc(N)n1 [Compound A49, 4-Ethyl-6-(5-furan-2-yl-1H-pyrrolo[2,3-b]pyridin-3-yl)pyrimidin-2-ylamine] |
| 10 to 1000 nM | CCc1cc(-c2c[nH]c3ncc(-c4cnn(CCOC)c4)cc23)nc(N)n1 [Compound A56, 4-Ethyl-6-{5-[1-(2-methoxyethyl)-1H-pyrazol-4-yl]-1H-pyrrolo[2,3-b]pyridin-3-yl}pyrimidin-2-ylamine] |
| 10 to 1000 nM | CCc1cc(-c2c[nH]c3ncc(-c4cnn(CC(C)C)c4)cc23)nc(N)n1 [Compound A66, 4-Ethyl-6-[5-(1-isobulyl-1H-pyrazol-4-yl)-1H-pyrrolo[2,3-b]pyridin-3-yl]-pyrimidin-2-ylamine] |

| Compound | IC50 |
| --- | --- |
| 4-(3-aminopropyl)-6-[5-(1-methyl-1H-pyrazol-4-yl)-1H-pyrrolo[2,3-b]pyridin-3-yl]pyrimidin-2-ylamine [Compound A42] | 10 to 1000 nM |
